Results published in patent publication US11654198B2, “Application of combination of polyethylene glycol and local anesthetic in non-narcotic analgesia” (JENKEM TECHNOLOGY CO., LTD. (TIANJIN), priority 2016, dated 2023).
One block for each molecule: values may come before it.

Legend:
experimental animals = test: Duration of non-anesthetic analgesic effect (statement in background); format: in vivo; conditions: single dose
SD rats [1] = test: Motor block four-level score, bupivacaine dose test (Example 28); format: in vivo, rat; set-up: key to motor function score: 1 = normal movement, 4 = complete loss of paw function
Description: (§1) 1.3 Test substance: bupivacaine injection, diluted with physiological saline to the target concentration; the reference substance is physiological saline.
(§2) After the animals are anesthetized by intraperitoneal injection of 10% chloral hydrate solution, the sciatic nerve is exposed to the biceps and gluteus maximus joints of the hind limbs through surgery, and silicone flexible catheters of the same length (7 cm) are placed around the sciatic nerve. the other ends of the catheters are subcutaneously embedded in the back of the rat, and then sutured and fixed, and 0.2 mL of an antibiotic solution (5,000 U/ml penicillin G) is injected for anti-inflammatory.
(§3) Twenty-four qualified rats (animals with no dyskinesia and pain threshold change after catheterization) are randomly divided into 6 groups, 4 rats in each group, the first group is a control group, the experimental animals are administered with normal saline, and the other groups are administered with different doses of bupivacaine injection. Each group is injected with a corresponding drug through the catheter around the sciatic nerve.
The exercise condition of each group of rats is evaluated by a motor block four-level scoring method. The scoring criteria are: paws can be dorsiflexed, stretched, valgus and other normal exercises, scored by 1 point; paws can be dorsiflexed, bendable or after the adduction, although the paws can be stretched, the stretching ability is weakened, scored by 2 points; the paws can perform dorsiflexion, but no longer has the ability to stretch, scored by 3 points; the paws completely lose the ability of dorsiflexion, curling and stretching, and the rats produce a gait defect, scored by 4 points. The time point for measuring the motor block score is before administration, and 5 min, 10 min, 30 min, 1 h, and 2 h after administration.

SD rats [2] = test: Sensory block, hot plate paw withdrawal time, bupivacaine minimum/maximum analgesic dose test (Example 28); format: in vivo, rat
Description: as §1, §2
After 2-3 days of catheterization, the SD rats with the body weight of 230-250 g and into which catheters are embedded are screened before the experiment by a hot plate method. The hot plate is heated to (56±1)° C., one of the hind paws of the rat is placed on the hot plate, and the other hind paw is placed in the laboratory room temperature condition, and the tested paw withdrawal time is observed and recorded. The average value of three times measured is recorded as a basic pain threshold.
as §3
The sensory block of the rats is examined by a hot plate method. The hot plate is heated to (56±1)° C., one of the hind paws of the rat is placed on the hot plate, and the other hind paw is placed at room temperature in the laboratory, the tested paw withdrawal time is observed and recorded. The average value of two to three times is recorded as a pain threshold. The paw withdrawal time of the hot plate method is recorded. In order to avoid the damage of the experimental animal body, if the rat has not withdrawal paw in the hot plate experiment for more than 15 s, the rat should be removed from the hot plate, and the experimental result is recorded as 15 s. The time point for determining the paw withdrawal time of the hot plate is before administration, and 5 minutes, 10 minutes, 30 minutes, 1 hour, and 2 hours after administration.

[3] = PEG-bupivacaine conjugate hydrolysis drug release in pH 7.4 PBS buffer (Example 29); format: physicochemical; conditions: 37° C., about 2 mg/mL
Experimental: Preparation of isotonic phosphate buffer (0.01 mol/L, pH 7.4, PBS): 8.0 g of NaCl, 0.2 g of KH2PO4, 2.9 g of Na2HPO4.12H2O and 0.2 g of KCl are added sequentially to a quantitative container, and an appropriate amount of distilled water is added to dissolve, and then the volume is adjusted to 1000 mL and the obtained buffer is stored in a refrigerator at 4° C. for use.
Hydrolysis drug release for the PEG-bupivacaine conjugate: PEG-bupivacaine products (bupivacaine conjugate 6, prepared in Example 9 of the present invention; bupivacaine conjugate 10, prepared in Example 16 of the present invention) are dissolved in PBS buffer at about 2 mg/mL and placed in a water-bathing constant temperature vibrator at 37° C. Samples are taken at 0 h, 6 h, 12 h, 24 h, 48 h, 72 h, 96 h, 120 h and 144 h, and the content of free bupivacaine is determined by HPLC.

[4] = group 2, 3 mg/kg (0.66 mg/rat) trans-catheter, 0 min (before administration)
[5] = group 2, 3 mg/kg (0.66 mg/rat) trans-catheter, 5 min
[6] = group 2, 3 mg/kg (0.66 mg/rat) trans-catheter, 10 min
[7] = group 2, 3 mg/kg (0.66 mg/rat) trans-catheter, 30 min
[8] = group 2, 3 mg/kg (0.66 mg/rat) trans-catheter, 60 min
[9] = group 2, 3 mg/kg (0.66 mg/rat) trans-catheter, 120 min
[10] = group 3, 1 mg/kg (0.22 mg/rat) trans-catheter, 0 min (before administration)
[11] = group 3, 1 mg/kg (0.22 mg/rat) trans-catheter, 5 min
[12] = group 3, 1 mg/kg (0.22 mg/rat) trans-catheter, 10 min
[13] = group 3, 1 mg/kg (0.22 mg/rat) trans-catheter, 30 min
[14] = group 3, 1 mg/kg (0.22 mg/rat) trans-catheter, 60 min
[15] = group 3, 1 mg/kg (0.22 mg/rat) trans-catheter, 120 min
[16] = group 4, 0.3 mg/kg (0.066 mg/rat) trans-catheter, 0 min (before administration)
[17] = group 4, 0.3 mg/kg (0.066 mg/rat) trans-catheter, 5 min
[18] = group 4, 0.3 mg/kg (0.066 mg/rat) trans-catheter, 10 min
[19] = group 4, 0.3 mg/kg (0.066 mg/rat) trans-catheter, 30 min
[20] = group 4, 0.3 mg/kg (0.066 mg/rat) trans-catheter, 60 min
[21] = group 4, 0.3 mg/kg (0.066 mg/rat) trans-catheter, 120 min
[22] = group 5, 0.1 mg/kg (0.022 mg/rat) trans-catheter, 0 min (before administration)
[23] = group 5, 0.1 mg/kg (0.022 mg/rat) trans-catheter, 5 min
[24] = group 5, 0.1 mg/kg (0.022 mg/rat) trans-catheter, 10 min
[25] = group 5, 0.1 mg/kg (0.022 mg/rat) trans-catheter, 30 min
[26] = group 5, 0.1 mg/kg (0.022 mg/rat) trans-catheter, 60 min
[27] = group 5, 0.1 mg/kg (0.022 mg/rat) trans-catheter, 120 min
[28] = group 6, 0.03 mg/kg (0.0066 mg/rat) trans-catheter, 0 min (before administration)
[29] = group 6, 0.03 mg/kg (0.0066 mg/rat) trans-catheter, 5 min
[30] = group 6, 0.03 mg/kg (0.0066 mg/rat) trans-catheter, 10 min
[31] = group 6, 0.03 mg/kg (0.0066 mg/rat) trans-catheter, 30 min
[32] = group 6, 0.03 mg/kg (0.0066 mg/rat) trans-catheter, 60 min
[33] = group 6, 0.03 mg/kg (0.0066 mg/rat) trans-catheter, 120 min

motor block effect (summary) (SD rats [1]; 3 mg/kg (0.66 mg/rat) and 1 mg/kg (0.22 mg/rat)): motor block effect
motor nerve block effect (summary) (SD rats [1]; 0.3, 0.1, 0.03 mg/kg (ie, 0.066, 0.022, 0.0066 mg/rat)): no motor nerve block effect is observed
motor function score (SD rats [1]; [4]): 1 ± 0
motor function score (SD rats [1]; [5]): 1 ± 0
motor function score (SD rats [1]; [6]): 1.75 ± 0.5
motor function score (SD rats [1]; [7]): 1.75 ± 0.5
motor function score (SD rats [1]; [8]): 1.75 ± 0.5
motor function score (SD rats [1]; [9]): 1 ± 0
motor function score (SD rats [1]; [10]): 1 ± 0
motor function score (SD rats [1]; [11]): 1.5 ± 0.58
motor function score (SD rats [1]; [12]): 1.5 ± 0.58
motor function score (SD rats [1]; [13]): 1.25 ± 0.5
motor function score (SD rats [1]; [14]): 1 ± 0
motor function score (SD rats [1]; [15]): 1 ± 0
motor function score (SD rats [1]; [16]): 1 ± 0
motor function score (SD rats [1]; [17]): 1 ± 0
motor function score (SD rats [1]; [18]): 1 ± 0
motor function score (SD rats [1]; [19]): 1 ± 0
motor function score (SD rats [1]; [20]): 1 ± 0
motor function score (SD rats [1]; [21]): 1 ± 0
motor function score (SD rats [1]; [22]): 1 ± 0
motor function score (SD rats [1]; [23]): 1 ± 0
motor function score (SD rats [1]; [24]): 1 ± 0
motor function score (SD rats [1]; [25]): 1 ± 0
motor function score (SD rats [1]; [26]): 1 ± 0
motor function score (SD rats [1]; [27]): 1 ± 0
motor function score (SD rats [1]; [28]): 1 ± 0
motor function score (SD rats [1]; [29]): 1 ± 0
motor function score (SD rats [1]; [30]): 1 ± 0
motor function score (SD rats [1]; [31]): 1 ± 0
motor function score (SD rats [1]; [32]): 1 ± 0
motor function score (SD rats [1]; [33]): 1 ± 0
Molecule: CCCCN1CCCCC1C(=O)Nc1c(C)cccc1C (stereo not drawn) [bupivacaine]
time the non-anesthetic analgesic effect is maintained (experimental animals): at most 1 hour
hot plate paw withdrawal time (SD rats [2]; [4]): 3.26 ± 0.88 s
hot plate paw withdrawal time (SD rats [2]; [5]): 6.32 ± 2.29 s
hot plate paw withdrawal time (SD rats [2]; [6]): 7.7 ± 3.88 s
hot plate paw withdrawal time (SD rats [2]; [7]): 7.85 ± 3.36 s
hot plate paw withdrawal time (SD rats [2]; [8]): 5.91 ± 1.9 s
hot plate paw withdrawal time (SD rats [2]; [9]): 4.26 ± 1.42 s
hot plate paw withdrawal time (SD rats [2]; [10]): 2.75 ± 0.74 s
hot plate paw withdrawal time (SD rats [2]; [11]): 5.17 ± 5.41 s
hot plate paw withdrawal time (SD rats [2]; [12]): 7.13 ± 5.43 s
hot plate paw withdrawal time (SD rats [2]; [13]): 7.13 ± 4.01 s
hot plate paw withdrawal time (SD rats [2]; [14]): 3.24 ± 0.85 s
hot plate paw withdrawal time (SD rats [2]; [15]): 2.13 ± 0.8 s
hot plate paw withdrawal time (SD rats [2]; [16]): 3.42 ± 0.87 s
hot plate paw withdrawal time (SD rats [2]; [17]): 6.08 ± 1.68 s
hot plate paw withdrawal time (SD rats [2]; [18]): 7.11 ± 2.55 s
hot plate paw withdrawal time (SD rats [2]; [19]): 7.09 ± 1.45 s
hot plate paw withdrawal time (SD rats [2]; [20]): 3.62 ± 1.25 s
hot plate paw withdrawal time (SD rats [2]; [21]): 3.76 ± 0.69 s
hot plate paw withdrawal time (SD rats [2]; [22]): 3.08 ± 0.61 s
hot plate paw withdrawal time (SD rats [2]; [23]): 4.41 ± 3.24 s
hot plate paw withdrawal time (SD rats [2]; [24]): 4.22 ± 2.45 s
hot plate paw withdrawal time (SD rats [2]; [25]): 3.59 ± 1.89 s
hot plate paw withdrawal time (SD rats [2]; [26]): 2.63 ± 0.41 s
hot plate paw withdrawal time (SD rats [2]; [27]): 2.96 ± 1.38 s
hot plate paw withdrawal time (SD rats [2]; [28]): 3.06 ± 1.1 s
hot plate paw withdrawal time (SD rats [2]; [29]): 3.36 ± 0.91 s
hot plate paw withdrawal time (SD rats [2]; [30]): 2.67 ± 0.6 s
hot plate paw withdrawal time (SD rats [2]; [31]): 3.11 ± 1.22 s
hot plate paw withdrawal time (SD rats [2]; [32]): 2.66 ± 0.53 s
hot plate paw withdrawal time (SD rats [2]; [33]): 3.09 ± 0.82 s

Molecule: 8-Arm-PEG-Bupivacaine, 20K [bupivacaine conjugate 10]
PEG-bupivacaine hydrolysis rate ([3]; 0 h): 0.43%
PEG-bupivacaine hydrolysis rate ([3]; 6 h): 15.03%
PEG-bupivacaine hydrolysis rate ([3]; 12 h): 25.19%
PEG-bupivacaine hydrolysis rate ([3]; 24 h): 40.37%
PEG-bupivacaine hydrolysis rate ([3]; 48 h): 61.72%
PEG-bupivacaine hydrolysis rate ([3]; 72 h): 76.25%
PEG-bupivacaine hydrolysis rate ([3]; 96 h): 87.28%
PEG-bupivacaine hydrolysis rate ([3]; 120 h): 92.76%
PEG-bupivacaine hydrolysis rate ([3]; 144 h): 96.13%
